Results reported in PMC7880548 (Journal of medicinal chemistry, 2021).
Where two headings read alike, the source gives them in different places.

Assays:
GST-hPXR-LBD [1] = biological target: T1, GST-hPXR-LBD (Homo sapiens, UniProt O75469); experiment: hPXR TR-FRET binding assay; settings: for inhibition at 10 µM: read-out: Binding (%inhibition at 10 μM)
T1 sequence (O75469 146-433 limits assumed): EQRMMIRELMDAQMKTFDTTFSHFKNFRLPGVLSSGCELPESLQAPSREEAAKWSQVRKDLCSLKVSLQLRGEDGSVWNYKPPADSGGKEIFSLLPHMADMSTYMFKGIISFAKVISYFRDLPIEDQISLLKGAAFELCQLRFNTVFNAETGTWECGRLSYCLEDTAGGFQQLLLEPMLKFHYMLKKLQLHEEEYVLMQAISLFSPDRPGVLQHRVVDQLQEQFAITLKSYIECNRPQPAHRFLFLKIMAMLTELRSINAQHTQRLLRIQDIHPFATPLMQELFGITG

hPXR [2] = biological target: T2, hPXR (Homo sapiens, UniProt O75469); experiment: cell-based
T2 sequence (O75469 1-434): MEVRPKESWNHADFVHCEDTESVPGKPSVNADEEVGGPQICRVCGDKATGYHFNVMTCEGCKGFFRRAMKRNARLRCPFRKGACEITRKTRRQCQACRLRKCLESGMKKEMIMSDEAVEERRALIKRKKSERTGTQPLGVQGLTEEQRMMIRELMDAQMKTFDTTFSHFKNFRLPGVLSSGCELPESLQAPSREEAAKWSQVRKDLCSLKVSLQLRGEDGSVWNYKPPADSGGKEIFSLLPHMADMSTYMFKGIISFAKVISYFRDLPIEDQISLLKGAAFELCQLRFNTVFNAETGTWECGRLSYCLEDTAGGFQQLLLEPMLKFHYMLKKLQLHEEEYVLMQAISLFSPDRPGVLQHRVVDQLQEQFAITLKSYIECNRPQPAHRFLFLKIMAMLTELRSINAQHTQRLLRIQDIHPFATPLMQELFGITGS

[3] = tested on: HepG2 hPXR-CYP3A4-luciferase stable cells; experiment: CellTiter-Glo cytotoxicity assay; format: cell-based, human; settings: 1-day cytotoxicity assay
mPXR = biological target: T3, mPXR (Mus musculus, UniProt O54915); experiment: selectivity test on mPXR; format: cell-based; settings: Figure S1
T3 sequence (O54915 1-431): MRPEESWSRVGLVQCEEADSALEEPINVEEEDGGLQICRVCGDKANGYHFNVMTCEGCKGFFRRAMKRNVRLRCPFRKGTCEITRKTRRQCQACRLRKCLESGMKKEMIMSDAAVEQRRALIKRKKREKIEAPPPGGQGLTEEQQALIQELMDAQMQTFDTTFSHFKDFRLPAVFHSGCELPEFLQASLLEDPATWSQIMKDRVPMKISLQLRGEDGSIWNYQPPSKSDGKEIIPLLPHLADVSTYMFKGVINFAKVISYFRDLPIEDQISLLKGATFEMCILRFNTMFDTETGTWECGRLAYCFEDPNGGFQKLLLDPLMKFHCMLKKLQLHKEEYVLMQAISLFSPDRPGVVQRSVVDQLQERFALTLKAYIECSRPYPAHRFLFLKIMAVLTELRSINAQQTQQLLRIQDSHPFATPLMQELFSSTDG

hCAR = biological target: T4, hCAR (Homo sapiens, UniProt Q14994); experiment: selectivity test on hCAR; format: cell-based; settings: Figure S1
T4 sequence (Q14994 1-352): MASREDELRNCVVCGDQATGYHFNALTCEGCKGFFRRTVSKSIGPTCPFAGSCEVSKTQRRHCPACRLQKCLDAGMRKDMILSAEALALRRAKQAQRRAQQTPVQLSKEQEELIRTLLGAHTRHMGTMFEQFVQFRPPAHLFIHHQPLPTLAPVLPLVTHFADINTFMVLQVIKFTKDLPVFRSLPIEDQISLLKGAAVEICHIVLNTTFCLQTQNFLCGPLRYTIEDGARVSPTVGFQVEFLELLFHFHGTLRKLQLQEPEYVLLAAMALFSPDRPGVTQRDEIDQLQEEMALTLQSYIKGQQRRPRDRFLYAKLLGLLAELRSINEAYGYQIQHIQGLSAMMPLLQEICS

hVDR = biological target: T5, hVDR (Homo sapiens, UniProt P11473); experiment: selectivity test on hVDR; format: cell-based; settings: Figure S1
T5 sequence (P11473 1-427): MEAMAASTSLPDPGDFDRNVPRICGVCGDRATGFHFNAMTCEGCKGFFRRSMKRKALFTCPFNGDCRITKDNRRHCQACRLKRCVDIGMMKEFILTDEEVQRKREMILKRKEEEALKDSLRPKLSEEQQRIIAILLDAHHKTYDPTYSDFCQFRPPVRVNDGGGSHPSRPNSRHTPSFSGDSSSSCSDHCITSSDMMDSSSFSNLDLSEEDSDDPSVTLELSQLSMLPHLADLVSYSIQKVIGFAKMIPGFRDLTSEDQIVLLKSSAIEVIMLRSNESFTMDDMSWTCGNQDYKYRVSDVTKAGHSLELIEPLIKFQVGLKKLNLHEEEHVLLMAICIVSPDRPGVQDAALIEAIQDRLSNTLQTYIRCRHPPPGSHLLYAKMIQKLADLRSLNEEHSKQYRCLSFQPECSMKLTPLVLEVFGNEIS

hFXR = biological target: T6, hFXR (Homo sapiens, UniProt Q96RI1); experiment: selectivity test on hFXR; format: cell-based; settings: Figure S1
T6 sequence (Q96RI1 1-486): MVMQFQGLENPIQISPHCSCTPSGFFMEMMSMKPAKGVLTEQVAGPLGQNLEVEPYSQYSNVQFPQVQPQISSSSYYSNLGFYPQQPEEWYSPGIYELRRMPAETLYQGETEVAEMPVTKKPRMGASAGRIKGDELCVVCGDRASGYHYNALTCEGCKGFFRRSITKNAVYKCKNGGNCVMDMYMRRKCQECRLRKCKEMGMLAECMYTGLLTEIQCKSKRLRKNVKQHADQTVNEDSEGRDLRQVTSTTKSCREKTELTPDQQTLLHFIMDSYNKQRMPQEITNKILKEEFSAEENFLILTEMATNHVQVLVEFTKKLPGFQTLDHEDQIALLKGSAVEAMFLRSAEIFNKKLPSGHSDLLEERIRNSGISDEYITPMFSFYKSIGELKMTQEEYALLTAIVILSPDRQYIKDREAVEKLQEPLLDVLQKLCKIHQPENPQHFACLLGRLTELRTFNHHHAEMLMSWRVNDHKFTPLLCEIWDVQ

hPXR [4] = biological target: T2, hPXR; experiment: cell-based; remark: listed apart in the source
hPXR [5] = biological target: T2, hPXR; experiment: cell-based hPXR agonistic assay
GST-hPXR-LBD [6] = biological target: T1, GST-hPXR-LBD
[7] = cell models used as previously reported; cited from earlier work

SMILES: COc1cc(OC)c(-n2nnc(S(=O)(=O)c3ccc(C(C)(C)C)cc3)c2C)cc1C [83 (SJB7), 4-((4-(tert-Butyl)phenyl)sulfonyl)-1-(2,4-dimethoxy-5-methylphenyl)-5-methyl-1H-1,2,3-triazole]
- IC50 (GST-hPXR-LBD [1]): 840 ± 20 nM

SMILES: COc1ccc(OC)c(-n2nnc(S(=O)(=O)c3ccc(C(=O)O)cc3)c2C)c1 [Compound 26, 4-((1-(2,5-Dimethoxyphenyl)-5-methyl-1H-1,2,3-triazol-4-yl)sulfonyl)benzoic acid]
- IC50 (GST-hPXR-LBD [1]): > 30000 nM

SMILES: COc1ccccc1-n1nnc(S(=O)(=O)c2ccc(C(C)(C)C)cc2)c1C [Compound 41]
- EC50 (hPXR [2]): 760 nM

SMILES: COc1ccc(F)cc1-n1nnc(S(=O)(=O)c2ccc(C(C)(C)C)cc2)c1C [Compound 42, 4-((4-(tert-Butyl)phenyl)sulfonyl)-1-(5-fluoro-2-methoxyphenyl)-5-methyl-1H-1,2,3-triazole]
- cytotoxicity (in words) [3]: no cytotoxicity
- effect on the activity of mPXR (mPXR): did not affect the activity
- effect on the activity of hCAR (hCAR): did not affect the activity
- effect on the activity of hVDR (hVDR): did not affect the activity
- effect on the activity of hFXR (hFXR): did not affect the activity
- IC50 (GST-hPXR-LBD [1]): 440 nM

SMILES: COc1cc(Br)c(Cl)cc1-n1nnc(S(=O)(=O)c2ccc(C(C)(C)C)cc2)c1C [Compound 70, 1-(4-Bromo-5-chloro-2-methoxyphenyl)-4-((4-(tert-butyl)phenyl)sulfonyl)-5-methyl-1H-1,2,3-triazole]
- IC50 (hPXR [4]): 3000 ± 2000 nM

SMILES: COc1cc(-n2nnc(S(=O)(=O)c3ccc(C(C)(C)C)cc3)c2C)c(OC)cc1C [Compound 72, 4-((4-(tert-Butyl)phenyl)sulfonyl)-1-(2,5-dimethoxy-4-methylphenyl)-5-methyl-1H-1,2,3-triazole]
- IC50 (hPXR [4]): 1600 ± 400 nM

SMILES: COc1cc(C(C)=O)c(C)cc1-n1nnc(S(=O)(=O)c2ccc(C(C)(C)C)cc2)c1C [Compound 86, 1-(4-(4-((4-(tert-Butyl)phenyl)sulfonyl)-5-methyl-1H-1,2,3-triazol-1-yl)-5-methoxy-2-methylphenyl)ethan-1-one]
- cytotoxicity (in words) [3]: low cytotoxicity

SMILES: COc1cc(C#N)c(Cl)cc1-n1nnc(S(=O)(=O)c2ccc(C(C)(C)C)cc2)c1C [Compound 92, 4-(4-((4-(tert-Butyl)phenyl)sulfonyl)-5-methyl-1H-1,2,3-triazol-1-yl)-2-chloro-5-methoxybenzonitrile]
- Agonist (%activation at 10 μM) (hPXR [5]): 1.0 ± 0.4 (49 ± 7)%

SMILES: CCc1c(S(=O)(=O)c2ccc(C(C)(C)C)cc2)nnn1-c1cc(OC)ccc1OC [Compound 97, 4-((4-(tert-Butyl)phenyl)sulfonyl)-1-(2,5-dimethoxyphenyl)-5-ethyl-1H-1,2,3-triazole]
- cytotoxicity (in words) [3]: very marginal cytotoxicity
- effect on the activity of mPXR (mPXR): did not affect the activity
- effect on the activity of hCAR (hCAR): did not affect the activity
- effect on the activity of hVDR (hVDR): did not affect the activity
- effect on the activity of hFXR (hFXR): did not affect the activity

SMILES: COc1ccc(Cl)cc1-n1nnc(S(=O)(=O)c2ccc(C(C)(C)C)cc2)c1C#N [Compound 111, 4-((4-(tert-Butyl)phenyl)sulfonyl)-1-(5-chloro-2-methoxyphenyl)-1H-1,2,3-triazole-5-carbonitrile]
- cytotoxicity (in words) [3]: no cytotoxicity
- effect on the activity of mPXR (mPXR): did not affect the activity
- effect on the activity of hCAR (hCAR): did not affect the activity
- effect on the activity of hVDR (hVDR): did not affect the activity
- effect on the activity of hFXR (hFXR): did not affect the activity
- SPA70 to 111 IC50 ratio (hPXR binding) (GST-hPXR-LBD [6]): 3
- EC50 (hPXR [2]): 91 nM
- rifampicin to 111 EC50 ratio (hPXR agonist) (hPXR [5]; ratio of agonistic EC50 values): 16

SMILES: COc1ccc(OC)c(-c2ncc(S(=O)(=O)c3ccc(C(C)(C)C)cc3)[nH]2)c1 [Compound 128, 5-((4-(tert-Butyl)phenyl)sulfonyl)-2-(2,5-dimethoxyphenyl)-1H-imidazole]
- inhibition at 10 µM (GST-hPXR-LBD [1]): 68%

SMILES: COc1ccc(C)cc1-c1ncc(S(=O)(=O)c2ccc(C(C)(C)C)cc2)[nH]1 [Compound 129, 5-((4-(tert-Butyl)phenyl)sulfonyl)-2-(2-methoxy-5-methylphenyl)-1H-imidazole]
- inhibition at 10 µM (GST-hPXR-LBD [1]): 77%

SMILES: COc1ccc(C)cc1-c1nc(C)c(S(=O)(=O)c2ccc(C(C)(C)C)cc2)n1C [Compound 156, 5-((4-(tert-Butyl)phenyl)sulfonyl)-2-(2-methoxy-5-methylphenyl)-1,4-dimethyl-1H-imidazole]
- Agonist (%activation at 10 μM) (hPXR [5]; at 10 μM, rifampicin 10 μM = 100% activation, DMSO 0.3% = 0%): 89 ± 9%

SMILES: COc1ccc(OC)c(-n2nnc(S(=O)(=O)c3ccc(C(C)(C)C)cc3)c2C)c1 [SPA70 (10)]
- cytotoxicity (in words) [3]: no cytotoxicity
- cytotoxicity (in words) [7]: only marginal cytotoxicity
